Where no end group is shown, it is not given here.
Columns and labels:
anti-β2GPI ILA-1 mAb = experiment: Cyto-ELISA: inhibition of ILA-1 mAb binding to HUVEC; set-up: species or system human; settings: peptide concentration of 10 μM
Method: FIGS. 2A–2C are graphs showing inhibition of the anti-β2GPI ILA-1, ILA-3 and G-3 mAbs binding to human umbilical vein endothelial cells (HUVEC) by competition assays using increasing concentrations of the inhibitory monomer peptides A, B and C, respectively, and of unrelated peptide D as control. The percent of inhibition was calculated as in FIG. 1 above. Each point represents mean±SD of three different experiments.
(f) Anti-β2GPI mAb binding to endothelial cells in the presence of the inhibitory peptides. Human umbilical vein endothelial cells (HUVEC) were isolated as previously described and cultured under standard conditions (Jaffe et al., 1973). Briefly, umbilical cords were treated with collagenase (0.2% from Clostridium histolyticum, Boehringer) for 20 min at 37° C., cells were cultured in medium 199 with 20% FCS, 10 μg/ml growth supplement, 100 μg/ml heparin and antibiotics (streptomycin, penicillin), and used at passages 1–2 for plating onto gelatin-coated 96-well plates. Cyto-ELISA was performed as detailed before (Jaffe et al., 1973). Briefly, mAbs at different concentrations were added to HUVEC confluent wells, previously coated with 10 μg/ml β2GPI for 2 hours and fixed with 0.1% glutaraldehyde. The bound mAb was detected by further 1-hour incubation with alkaline phosphatase-conjugated goat anti-human IgM. […]

[1] = test system: experimental APS induced by anti-β2GPI mAb G-3; experiment: Murine experimental APS induced by G-3 mAb; assay type: in vivo, BALB/c mice; settings: mice infused with G-3 mAb, peptide 40 μg/mouse daily 3 days, day 15
Method: (i) Mice: Female BALB/c mice, aged 10–12 weeks, were purchased from Tel-Aviv University Animal House, Israel. The females were caged overnight with BALB/c males and examined for vaginal plug next morning. The presence of the plug was considered as day 0 of pregnancy in all the studied groups. (j) Induction of murine experimental APS. Mice were infused intravenously with 20 μg of each one of the anti-β2GPI ILA-1, ILA-3, and G-3 mAbs at day 0 (the day at which a vaginal plug was observed following mating) (Blank et al., 1991), 6 hours later the mice received daily 40 μg/mouse of the tested peptides during 3 days. The mice were bled and sacrificed on day 15 of pregnancy. Fetal resorptions, activated partial thromboplastin time and platelet counts (markers of the APS-equivalent in mice) were determined as described (Blank et al., 1991). Significant fetal loss, thrombocytopenia and prolonged activated thromboplastin time (aPTT) were induced in naive mice following passive intravenous administration of the three anti-β2GPI mAbs ILA-1, ILA-3 and G-3, as described in Materials and Methods, section (j). The clinical manifestations of the experimental APS were prevented by infusion of the specific peptide monomers A, B, C which were delivered to the mice with the corresponding pathogenic anti-β2GPI mAbs, as shown in Table 2. […] Similarly, mice which were preinfused with control IgM and received a cocktail of the peptide monomers (A+B+C), were not affected.

anti-β2GPI ILA-3 mAb = experiment: ELISA for adhesion molecule expression on HUVEC exposed to ILA-3 mAb; assay type: cell-based, human
Method: FIG. 4 is a bar graph showing inhibition of expression of the adhesion molecules E-selectin, intracellular adhesion molecule-1 (ICAM-1) and vascular cell adhesion molecule-1 (VCAM-1) on HUVEC by specific inhibitory monomer peptides A, B, or C. To the HUVEC incubated with β2GPI, were added anti-β2GPI ILA-1, ILA-3 and G-3 mAbs with and without preincubation (2 h) with the peptide monomers A, B and C, respectively, and control peptide D. The expression of adhesion molecules was probed by ELISA employing biotinylated anti-human ICAM-1, VCAM-1, E-selectin and streptavidin-alkaline phosphatase. Each point represents mean±SD of three different experiments.
(h) ELISA for detecting the expression of adhesion molecules following exposure to anti-β2GPI mAbs and the inhibitory peptides. HUVEC cells grown in 96-well plates and preincubated with mAbs, with and without different concentrations of specific and irrelevant peptides (100 ug/ml), were washed, fixed with 0.1% glutaraldehyde, and then treated with PBS containing 0.2% Triton-X100 in order to permeabilize the cell membrane (Adamson et al., 1996). The plates were blocked with 3% BSA and incubated with biotinylated mouse anti-human E-selectin, anti-human intracellular adhesion molecule-1 (ICAM-1) or anti-human vascular cell adhesion molecule-1 (VCAM-1) (PharMingen, Torreyana Road, San Diego, Calif.) 1 μg/ml for 1 hour. The cells were then exposed to streptavidin alkaline phosphatase (Jackson) and appropriate substrate.
The enhancement of monocytes to endothelial cells followed by increase in the amount of adhesion molecules expression, as a result of exposure of endothelial cells to anti-β2GPI mAbs, has been observed previously at the laboratory of one of the present inventors. The effect of each specific peptide monomer A, B, C on the expression of the adhesion molecules E-selectin, ICAM-1 and VCAM-1 on HUVEC caused by the corresponding anti-β2GPI mAb, was examined according to Materials and Methods, section (h). […]

**Q.** For NTLKTPRVGG [Peptide A], which “inhibition of ILA-1 mAb binding to HUVEC” value (anti-β2GPI ILA-1 mAb) is on record?
**A.** The value was 95%.

**Q.** CATLRVYKGG [Peptide C] was tested. Which “% Fetal loss (Resorbed fetuses/Total fetuses)” value [1] did it give?
**A.** Its value is 7 ± 2%.

**Q.** And the Platelet count [1]?
**A.** Its Platelet count is 1242 cells/mm^3 × 10^−3.

**Q.** And the “aPTT (activated partial thromboplastin time)” value [1]?
**A.** The value was 31 ± 4 s.

**Q.** And the “aPTT (activated partial thromboplastin time)” value ([1]; listed as peptide C)?
**A.** Its value is 31 ± 4 s.

**Q.** Which “ICAM-1 expression by HUVEC” value (anti-β2GPI ILA-3 mAb; HUVEC exposed to ILA-3 mAb) does the source give for KDKATFGTHDG [Peptide B] here?
**A.** The value was “abrogated”.

**Q.** What about the “VCAM-1 expression by HUVEC” value (anti-β2GPI ILA-3 mAb; HUVEC exposed to ILA-3 mAb) of the same sequence?
**A.** Its value is “abrogated”.

**Q.** And the “E-selectin expression by HUVEC” value (anti-β2GPI ILA-3 mAb; ILA-3 mAb preincubated with peptide)?
**A.** Its value is 0.211±0.064 O.D.

Source: patent US7053178B2, “Synthetic peptides and kits for diagnosis of anti-phospholipid syndrome” (Yeda Research Development Co., LTD, priority 1998, dated 2006)
